Drawing on patent publication US11186583B2, “5-alkylthio-7-[(4-arylbenzyl)amino]-1(2)H-pyrazolo[4,3-d]pyrimidines for treatment of lymphoma” (UNIVERZITA PALACKEHO V OLOMOUCI, priority 2018, dated 2021), this text covers GI50 for 20 compounds.

Type in all cases: cell-based
In experiment [1] the test system is OCI-LY2 (diffuse large B-cell lymphoma, subtype—germinal center B-cell). Kind of experiment: MTT cytotoxicity assay, OCI-LY2 lymphoma cell line. As to conditions: 72 h, OCI-LY2 cells, three days, read-out: Lymphoma cell lines GI50, OCI-LY2. The source says:
(§1) Cytotoxicity of the compounds is the major property determining their anti-lymphoma efficacy in vitro. One of the parameters used, as the basis for cytotoxicity assays, is the metabolic activity of viable cells. For example 2, a microtiter assay, which uses (3-(4,5-dimethylthiazol-2-yl)-2,5-diphenyltetrazolium bromide (MTT), is widely used to quantitate cell proliferation and cytotoxicity. This assay is widely used in drug screening programs and in chemosensitivity testing. Because only metabolically active living cells reduce MTT to correspond purple formazan dye, these assays detect viable cells exclusively. The quantity of reduced MTT corresponds to the number of vital cells in the culture.
(§2) The compounds were assayed using the following lymphoma cell lines: HT (diffuse large B-cell lymphoma, subtype—germinal center B-cell), OCI-LY2 (diffuse large B-cell lymphoma, subtype—germinal center B-cell), MINO (mantle cell lymphoma). All cell lines were grown in RPMI medium supplemented with fetal bovine serum and glutamine and maintained at 37° C. in a humidified atmosphere with 5% CO2. For cytotoxicity assays, 5000-10000 cells were seeded into each well of 96 well plate, allowed to stabilize for at least 8 h and then tested compounds were added at various concentrations ranging from 100 to 0.01 μM in triplicates. After three days, MTT solution (5 mg/ml; Sigma, St. Louis, USA) was added to cells and medium was replaced with DMSO after five hours. The absorbance was measured at 620 nm by employing a microplate reader. MTT assays were repeated 3 times for each drug application and untreated cells were used as reference. The GI50 values, drug concentrations lethal to 50% of the cells, were calculated from the obtained dose response curves.
A general note: Tetrazolium assays rely on reduction of a dye to a coloured formazan, in cell work by metabolically active cells.

In experiment [2] the test system is HT (diffuse large B-cell lymphoma, subtype—germinal center B-cell). Description: MTT cytotoxicity assay, HT lymphoma cell line. As to conditions: Homo sapiens, 72 h, HT cells, three days, read-out: Lymphoma cell lines GI50, HT.
Text: as §1, §2

Experiment [3] concerns MINO (mantle cell lymphoma). Description: MTT cytotoxicity assay, MINO lymphoma cell line. As to conditions: Homo sapiens, 72 h, MINO cells, three days, read-out: Lymphoma cell lines GI50, MINO.
Text: as §1, §2

Consider `CC(C)c1n[nH]c2c(NCc3ccc(-c4ccccn4)cc3)nc(SCCC(N)=O)nc12` [Compound 4.6, 5-(2-Carbamoyl-1-ethyl)thio-3-isopropyl-7-[4-(2-pyridyl)benzyl]amino-1(2)H-pyrazolo[4,3-d]pyrimidine], for which the GI50 (in general, the concentration at which growth is held to half of that of the control) in experiment [1] is 84 nM; in experiment [2], 120 nM; in experiment [3], 81 nM.

Consider `CNCCSc1nc(NCc2ccc(-c3ccccn3)cc2)c2[nH]nc(C(C)C)c2n1` [Compound 4.34, 5-(3-Methylamino-1-ethyl)thio-3-isopropyl-7-[4-(2-pyridyl)benzyl]amino-1(2)H-pyrazolo[4,3-d]pyrimidine], for which the GI50 is 92 nM in experiment [1], 56 nM in experiment [2] and 40 nM in experiment [3].

Consider `CC(C)c1n[nH]c2c(NCc3ccc(-c4ccccn4)cc3)nc(SCC(O)CN3CCOCC3)nc12` (stereo not drawn) [Compound 4.24], for which the results for the GI50 in experiment [1], in experiment [2] and in experiment [3] were 200 nM, 200 nM and 243 nM, respectively.

Turning to `CC(C)c1n[nH]c2c(NCc3ccc(-c4ccccn4)cc3)nc(SCC(O)C(F)(F)F)nc12` (stereo not drawn) [Compound 4.32, 5-(3,3,3-Trifluoro-2-hydroxy-1-propyl)thio-3-isopropyl-7-[4-(2-pyridyl)benzyl]amino-1(2)H-pyrazolo[4,3-d]pyrimidine], the figures for the GI50 in experiment [1], in experiment [2] and in experiment [3] were 585 nM, 690 nM and 641 nM, respectively.

With `CC(C)c1n[nH]c2c(NCc3ccc(-c4ccccn4)cc3)nc(SCC(N)=O)nc12` [Compound 4.7, 5-(Carbamoylmethyl)thio-3-isopropyl-7-[4-(2-pyridyl)benzyl]amino-1(2)H-pyrazolo[4,3-d]pyrimidine], the GI50 in experiment [1] came out at 163 nM; in experiment [2], 192 nM; in experiment [3], 197 nM.

On to `CC(C)c1n[nH]c2c(NCc3ccc(-c4ccccn4)cc3)nc(SCC(N)CN)nc12` (stereo not drawn) [Compound 4.29, 5-(2,3-Diamino-1-propyl)thio-3-isopropyl-7-[4-(2-pyridyl)benzyl]amino-1(2)H-pyrazolo[4,3-d]pyrimidine], for which the GI50 in experiment [1] stood at 780 nM; in experiment [2], 480 nM; in experiment [3], 770 nM.

Consider `CSCCSc1nc(NCc2ccc(-c3ccccn3)cc2)c2[nH]nc(C(C)C)c2n1` [Compound 4.30, 5-(2-Methylthio-1-ethyl)thio-3-isopropyl-7-[4-(2-pyridyl)benzyl]amino-1(2)H-pyrazolo[4,3-d]pyrimidine], for which the results for the GI50 in experiment [1], in experiment [2] and in experiment [3] were 668 nM, 975 nM and 773 nM, respectively.

In the case of `CC(C)c1n[nH]c2c(NCc3ccc(-c4ccccn4)cc3)nc(SC3CCCCC3O)nc12` (stereo not drawn) [Compound 4.14, 5-(2-Hydroxycyclohexyl1-yl)thio-3-isopropyl-7-[4-(2-pyridyl)benzyl]amino-1(2)H-pyrazolo[4,3-d]pyrimidine], the GI50 in experiment [1] turned out to be 680 nM; in experiment [2] it was 636 nM; in experiment [3] it was 530 nM.

`CC(C)c1n[nH]c2c(NCc3ccc(-c4ccccn4)cc3)nc(SCC(O)CN3CCNCC3)nc12` (stereo not drawn) [Compound 4.25, 5-[3-(1-Piperazinyl)-2-hydroxy-1-propyl]thio-3-isopropyl-7-[4-(2-pyridyl)benzyl]amino-1(2)H-pyrazolo[4,3-d]pyrimidine]: the results for the GI50 in experiment [1], in experiment [2] and in experiment [3] were 435 nM, 332 nM and 767 nM, respectively.

Regarding `CC(C)c1n[nH]c2c(NCc3ccc(-c4ccccn4)cc3)nc(SCC(C)(C)N)nc12` [Compound 4.13, 5-(2-Amino-2-methyl-1-propyl)thio-3-isopropyl-7-[4-(2-pyridyl)benzyl]amino-1(2)H-pyrazolo[4,3-d]pyrimidin], the GI50 is 100 nM in experiment [1], 85 nM in experiment [2] and 64 nM in experiment [3].

With `CC(C)c1n[nH]c2c(NCc3ccc(-c4ccccn4)cc3)nc(SCC3CNC(=O)O3)nc12` (stereo not drawn) [Compound 4.28, 5-[(Oxazolidin-2-on-5-yl)methyl]thio-3-isopropyl-7-[4-(2-pyridyl)benzyl]amino-1(2)H-pyrazolo[4,3-d]pyrimidine], the values for the GI50 in experiment [1], in experiment [2] and in experiment [3] were 53 nM, 80 nM and 69 nM, respectively.

For the compound `CC(C)c1n[nH]c2c(NCc3ccc(-c4ccccn4)cc3)nc(SC(CO)C(C)C)nc12` (stereo not drawn) [Compound 4.21, 5-(1-Hydroxy-3-methyl-2-butyl)thio-3-isopropyl-7-[4-(2-pyridyl)benzyl]amino-1(2)H-pyrazolo[4,3-d]pyrimidine], the results for the GI50 in experiment [1], in experiment [2] and in experiment [3] were 1000 nM, 980 nM and 1310 nM, respectively.

For the compound `CC(C)c1n[nH]c2c(NCc3ccc(-c4ccccn4)cc3)nc(SCCO)nc12` [Compound 4.1, 5-(2-Hydroxy-1-ethyl)thio-3-isopropyl-7-[4-(2-pyridyl)benzyl]amino-1(2)H-pyrazolo[4,3-d]pyrimidine], the GI50 worked out at 50 nM in experiment [1], 48 nM in experiment [2] and 40 nM in experiment [3].

Consider `CC(C)c1n[nH]c2c(NCc3ccc(-c4ccccn4)cc3)nc(SCCn3ccnc3)nc12` [Compound 4.26, 5-[2-(1-Imidazolyl)-1-ethyl]thio-3-isopropyl-7-[4-(2-pyridyl)benzyl]amino-1(2)H-pyrazolo[4,3-d]pyrimidine], for which the concentration for 50% growth inhibition (GI50) in experiment [1] stood at 145 nM; in experiment [2], 155 nM; in experiment [3] it was 135 nM.

`CC(C)c1n[nH]c2c(NCc3ccc(-c4ccccn4)cc3)nc(SCCNC(=N)N)nc12` [Compound 4.10, 5-(2-Guanidino-1-ethyl)thio-3-isopropyl-7-[4-(2-pyridyl)benzyl]amino-1(2)H-pyrazolo[4,3-d]pyrimidine]: the GI50 in experiment [1] is 812 nM; in experiment [2], 390 nM; in experiment [3] it was 390 nM.

For the compound `CCC(CO)Sc1nc(NCc2ccc(-c3ccccn3)cc2)c2[nH]nc(C(C)C)c2n1` (stereo not drawn) [Compound 4.5, 5-(1-Hydroxy-2-butyl)thio-3-isopropyl-7-[4-(2-pyridyl)benzyl]amino-1(2)H-pyrazolo[4,3-d]pyrimidin], the GI50 in experiment [1] was 181 nM; in experiment [2], 255 nM; in experiment [3] it was 119 nM.

For `CC(=O)NCCSc1nc(NCc2ccc(-c3ccccn3)cc2)c2[nH]nc(C(C)C)c2n1` [Compound 4.12, 5-(2-Acetylamino-1-ethyl)thio-3-isopropyl-7-[4-(2-pyridyl)benzyl]amino-1(2)H-pyrazolo[4,3-d]pyrimidine], the GI50 was 54 nM in experiment [1], 71 nM in experiment [2] and 42 nM in experiment [3].

As for `C=CCSc1nc(NCc2ccc(-c3ccccn3)cc2)c2[nH]nc(C(C)C)c2n1` [Compound 4.2, 5-(Prop-2-en-1-yl)thio-3-isopropyl-7-[4-(2-pyridyl)benzyl]amino-1(2)H-pyrazolo[4,3-d]pyrimidine], the values for the GI50 in experiment [1], in experiment [2] and in experiment [3] were 858 nM, 1000 nM and 923 nM, respectively.

Turning to `CC(O)CSc1nc(NCc2ccc(-c3ccccn3)cc2)c2[nH]nc(C(C)C)c2n1` (stereo not drawn) [Compound 4.3, 5-(2-Hydroxy-1-propyl)thio-3-isopropyl-7-[4-(2-pyridyl)benzyl]amino-1(2)H-pyrazolo[4,3-d]pyrimidine], the GI50 stood at 152 nM in experiment [1], 62 nM in experiment [2] and 81 nM in experiment [3].

As to `CC(C)c1n[nH]c2c(NCc3ccc(-c4ccccn4)cc3)nc(SCCNC(N)=O)nc12` [Compound 4.11, 5-(2-Ureido-1-ethyl)thio-3-isopropyl-7-[4-(2-pyridyl)benzyl]amino-1(2)H-pyrazolo[4,3-d]pyrimidine], the GI50 in experiment [1] was determined as 198 nM; in experiment [2], 240 nM; in experiment [3], 136 nM.
